Test results taken from patent US20210347736A1, “CRYSTALLINE FORMS OF A FARNESOID X RECEPTOR AGONIST” (Metacrine, Inc., priority 2018, published 2021).
“Also recorded” adds a separate entry of the source.

Key:
[1] = target: T1, hFXR (Homo sapiens, UniProt Q96RI1); assay: In Vitro FXR Assay (TK hFXR luciferase reporter in transfected CV-1 cells); assay type: cell-based; details: CV-1 cells transfected with hFXR, hRXR, TK-ECRE-luc; 18 hrs incubation; luminescence
T1 construct: expressed in transfected cells; host or cells: CV-1 cells
T1 sequence (Q96RI1 1-486): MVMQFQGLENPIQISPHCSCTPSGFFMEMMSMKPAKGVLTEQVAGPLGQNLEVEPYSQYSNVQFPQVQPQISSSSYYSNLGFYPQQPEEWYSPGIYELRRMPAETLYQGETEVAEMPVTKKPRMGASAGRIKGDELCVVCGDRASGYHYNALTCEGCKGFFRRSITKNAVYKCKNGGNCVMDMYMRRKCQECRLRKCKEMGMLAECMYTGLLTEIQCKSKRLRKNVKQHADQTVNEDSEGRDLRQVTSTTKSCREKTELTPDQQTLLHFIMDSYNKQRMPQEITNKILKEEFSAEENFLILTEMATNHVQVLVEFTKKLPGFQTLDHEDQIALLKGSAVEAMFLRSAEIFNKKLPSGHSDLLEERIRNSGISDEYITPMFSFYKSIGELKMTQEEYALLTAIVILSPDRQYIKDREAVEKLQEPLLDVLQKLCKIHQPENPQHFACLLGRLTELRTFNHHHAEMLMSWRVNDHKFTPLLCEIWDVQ
T1 sequence (P19793 1-462 partner): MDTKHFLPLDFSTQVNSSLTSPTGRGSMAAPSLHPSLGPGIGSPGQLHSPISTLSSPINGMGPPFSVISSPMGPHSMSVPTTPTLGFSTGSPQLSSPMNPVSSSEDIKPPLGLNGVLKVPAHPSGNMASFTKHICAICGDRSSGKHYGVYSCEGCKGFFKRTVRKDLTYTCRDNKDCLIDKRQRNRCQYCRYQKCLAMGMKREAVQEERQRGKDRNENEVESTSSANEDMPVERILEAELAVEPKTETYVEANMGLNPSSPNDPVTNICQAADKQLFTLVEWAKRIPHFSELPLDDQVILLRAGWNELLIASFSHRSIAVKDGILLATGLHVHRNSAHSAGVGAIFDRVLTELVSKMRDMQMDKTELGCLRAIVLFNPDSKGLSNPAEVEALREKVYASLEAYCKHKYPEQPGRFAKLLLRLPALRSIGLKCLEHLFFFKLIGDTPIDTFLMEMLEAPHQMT
Method: CV-1 cells were seeded at a density of 2,000,000 cells in a T175 flask with DMEM+10% charcoal double-stripped FBS and incubated at 37° C. in 5% CO2 for 18 h (O/N).
After 18 h of incubation, the medium in the T175 flask was changed with fresh DMEM+10% charcoal super-stripped serum. In a polypropylene tube, 2500 μL OptiMEM (Life Technologies, Cat #31985-062) was combined with expression plasmids for hFXR, hRXR, TK-ECRE-luc and pCMX-YFP. The tube was then briefly vortexed and incubated at room temperature for 5 minutes. Transfection reagent (X-tremeGENE HP from Roche, Cat #06 366 236 001) was added to the OptiMEM/plasmid mixture vortexed and incubated at room temperature for 20 minutes. Following incubation, the transfection reagent/DNA mixture complex was added to cells in the T175 flask and the cells were incubated at 37° C. in 5% CO2 for 18 h (O/N).
Compound 1 was serially diluted in DMSO and added to transfected CV-1 cells. The cells were then incubated for 18 hrs. The next day cells were lysed and examined for luminescence.

[2] = Gravimetric Vapor Sorption (GVS); assay type: physicochemical
Method: Sorption isotherms were obtained using a SMS DVS Intrinsic moisture sorption analyser, controlled by DVS Intrinsic Control software v1.0.1.2 (or v1.0.1.3). The sample temperature was maintained at 25° C. by the instrument controls. The humidity was controlled by mixing streams of dry and wet nitrogen, with a total flow rate of 200 ml/min The relative humidity was measured by a calibrated Rotronic probe (dynamic range of 1.0-100% RH), located near the sample. The weight change, (mass relaxation) of the sample as a function of % RH was constantly monitored by the microbalance (accuracy ±0.005 mg).
Typically 5-20 mg of sample was placed in a tared mesh stainless steel basket under ambient conditions. The sample was loaded and unloaded at 40% RH and 25° C. (typical room conditions). A moisture sorption isotherm was performed as outlined below (2 scans giving 1 complete cycle). The standard isotherm was performed at 25° C. at 10% RH intervals over a 0-90% RH range. Data analysis was carried out using Microsoft Excel using DVS Analysis Suite v6.2 (or v6.1 or v6.0).
The sample was recovered after completion of the isotherm and re-analysed by XRPD.

[3] = Storage stability of Form 1 for 7 days at elevated humidity (HPLC purity, XRPD); assay type: physicochemical
Method: X-Ray Powder Diffraction patterns were collected on a Bruker D8 diffractometer using Cu Kα radiation (40 kV, 40 mA), 0-20 goniometer, and divergence of V4 and receiving slits, a Ge monochromator and a Lynxeye detector. The instrument was performance checked using a certified Corundum standard (NIST 1976). The software used for data collection was Diffrac Plus XRD Commander v2.6.1 and the data were analysed and presented using Diffrac Plus EVA v15.0.0.0.
Samples were run under ambient conditions as flat plate specimens using powder as received. The sample was gently packed into a cavity cut into polished, zero-background (510) silicon wafer. The sample was rotated in its own plane during analysis. The parameters for data collection were: angular range, 2 to 42° 2θ; step size, 0.05° 2θ; collection time, 0.5 s/step.
Purity analysis was performed on an Agilent HP1100 series system equipped with a diode array detector and using ChemStation software vB.04.03 using the method detailed in Table 4 below:
Further, Form 1 of Compound 1 was unchanged by XRPD after 7 days at 25° C. and 97% RH (see FIG. 6, trace (b)).
Further, Form 1 of Compound 1 was unchanged by XRPD after 7 days at 40° C. and 75% RH (see FIG. 6, trace (c)).

[4] = after 7 days at 25° C. and 97% RH
[5] = after 7 days at 40° C. and 75% RH

EC50 [1] [nM] | Post-GVS analysis by XRPD ([2]; after GVS) | moisture uptake by GVS ([2]; between 0-90% RH, 25° C.) [%] | HPLC purity after storage [3, 4] [% AUC] | change by XRPD after storage [3, 4] | HPLC purity after storage [3, 5] [% AUC] | change by XRPD after storage [3, 5] | SMILES | hygroscopicity / moisture uptake by GVS (in words) ([2]; summary statement)
≤ 250 |  |  |  |  |  |  | COc1ccc([C@H]2CC[C@H](CN(c3cccc(-c4cnn(C5CC5)c4)c3)C(=O)[C@H]3CC[C@H](O)CC3)CC2)cc1C [Compound 1, trans-N-(3-(1-cyclopropyl-1H-pyrazol-4-yl)phenyl)-4-hydroxy-N-((trans-4-(4-methoxy-3-methylphenyl)cyclohexyl)methyl)cyclohexanecarboxamide] | 
 | no change | 0.02 | 99.40 | unchanged; also recorded: no changes | 99.48 | unchanged; also recorded: no changes | COc1ccc([C@H]2CC[C@H](CN(c3cccc(-c4cnn(C5CC5)c4)c3)C(=O)[C@H]3CC[C@H](O)CC3)CC2)cc1C [Form 1 of Compound 1, trans-N-(3-(1-cyclopropyl-1H-pyrazol-4-yl)phenyl)-4-hydroxy-N-((trans-4-(4-methoxy-3-methylphenyl)cyclohexyl)methyl)cyclohexanecarboxamide] | non-hygroscopic; also recorded: No significant moisture uptake
